According to patent publication US20170152269A1, “FUSED BICYCLIC COMPOUNDS AND THEIR USE AS CDK INHIBITORS” (priority 2016, published 2017):
pIC50: −log10 of the molar value.

Columns and labels:
CDK6 = target: T1, CDK6 (Homo sapiens, UniProt Q00534); assay: Lance TR-FRET kinase assay, CDK6; format: biochemical
T1 construct: purchased ThermoFisher (Waltham, Mass.)
Procedure: Time Resolved-Fluorescent Resonance Energy Transfer (TR-FRET) was used to determine inhibitory ability of compounds A1˜A19, B1s and B1˜B12 against the enzymatic activity of CDK1, CDK2, CDK4, CDK5, CDK6, CDK7, and CDK9.
(§1) Inhibitory activity of compounds against CDK1/2/4/5/6/7 was assessed using Lance TR-FRET assay kits from Perkin Elmer Life Sciences (Waltham, Mass.). CDK1/2/4/5/6/7 enzymes were purchased from ThermoFisher (Waltham, Mass.). 2.5 μL of compound solutions and 2.5 μL of enzyme solutions in kinase assay buffer, which was 50 mM HEPES (pH 7.5) with 1 mM EGTA, 1 mM MgCl2, 2 mM DTT, and 0.01% Tween-20, were added into a white OptiPlate-384 plate followed by adding 5 μL of fluorescently labeled peptide substrates (Ulight-4E-BP1 for CDK4/6 and Ulight-MBP for CDK1/2/7/9) and ATP mixture solutions. Final concentrations of substrates and DMSO were 100 nM and 0.5%, respectively. Concentrations of ATP and different CDK enzymes were adjusted accordingly to achieve optimal enzymatic activities. Final CDK concentrations were 100, 500, 600, 100, 50, and 200 ng/well and ATP concentrations were 30, 50, 100, 20, 100, and 50 μM for CDK1/2/4/5/6/7, respectively. Assay plates were covered to protect from light and spun for 1 min at 700 RPM. Reactions were allowed to perform for 60 minutes in dark with gentle shaking at room temperature after which 5 μL of 40 mM EDTA in detection buffer was added to stop reactions followed 5 μL of the Eu labeled antibodies giving final concentrations of 2 nM to detect the phosphorylation of the peptide substrates. Assay plates were read with the EnVision™ Multilabel Reader in TR-FRET mode (excitation at 320 nm and emission at 665 nm). The percent of inhibition was calculated from the means of data points using the formula: 100−(Signalcompound−NoSignalbackground)*100/(Signalvehicle−NoSignalbackground). The IC50s were determined with GraphPad Prism by the non-linear sigmoidal curve fitting of data from 10 doses.

CDK4 = target: T2, CDK4 (Homo sapiens, UniProt P11802); assay: Lance TR-FRET kinase assay, CDK4; format: biochemical; settings: ATP 100 μM, 60 min, read-out: CDK 4 inhibitory activity (IC50)
T2 construct: purchased ThermoFisher (Waltham, Mass.)
T2 sequence (P11802 whole entry): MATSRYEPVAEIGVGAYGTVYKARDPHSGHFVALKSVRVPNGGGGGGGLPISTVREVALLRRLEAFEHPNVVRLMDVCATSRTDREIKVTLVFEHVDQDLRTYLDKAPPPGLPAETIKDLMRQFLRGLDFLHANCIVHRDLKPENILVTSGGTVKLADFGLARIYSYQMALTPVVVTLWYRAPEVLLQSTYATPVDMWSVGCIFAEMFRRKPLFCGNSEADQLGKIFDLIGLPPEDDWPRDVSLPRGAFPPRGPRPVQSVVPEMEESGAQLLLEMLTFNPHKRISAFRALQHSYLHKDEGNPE
T2 sequence (P24385 whole entry partner): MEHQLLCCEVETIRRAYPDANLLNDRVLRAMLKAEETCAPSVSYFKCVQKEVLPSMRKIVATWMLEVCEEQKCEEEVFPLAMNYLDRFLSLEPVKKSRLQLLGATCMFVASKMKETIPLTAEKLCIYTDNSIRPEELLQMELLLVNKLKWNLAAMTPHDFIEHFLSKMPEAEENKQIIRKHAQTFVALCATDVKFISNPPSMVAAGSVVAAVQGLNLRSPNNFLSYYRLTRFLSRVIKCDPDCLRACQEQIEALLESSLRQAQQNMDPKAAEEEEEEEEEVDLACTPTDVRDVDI
Procedure: as §1, with “2.5 μL of compound solutions and 2.5 μL of enzyme solutions in kinase assay buffer, which was 50 mM HEPES (pH 7.5) with 1 mM EGTA, 1 mM MgCl2, 2 mM DTT, and 0.01% Tween-20, were added into a white OptiPlate-384 plate followed by adding 5 μL of fluorescently labeled peptide substrates (Ulight-4E-BP1 for CDK4/6 and Ulight-MBP for CDK1/2/7/9) and ATP mixture solutions.” left out, “Assay plates were read with the EnVision™ Multilabel Reader in TR-FRET mode (excitation at 320 nm and emission at 665 nm).” left out

T1 sequence (Q00534 whole entry): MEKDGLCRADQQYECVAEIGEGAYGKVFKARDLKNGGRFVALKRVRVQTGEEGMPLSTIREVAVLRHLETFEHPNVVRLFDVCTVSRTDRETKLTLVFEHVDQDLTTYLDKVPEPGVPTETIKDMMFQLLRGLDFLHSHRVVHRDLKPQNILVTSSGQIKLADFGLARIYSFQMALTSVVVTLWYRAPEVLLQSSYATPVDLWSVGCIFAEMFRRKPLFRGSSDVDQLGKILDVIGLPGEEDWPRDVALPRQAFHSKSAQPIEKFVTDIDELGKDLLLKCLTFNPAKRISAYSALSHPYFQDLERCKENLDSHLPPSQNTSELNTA
T1 sequence (P24385 whole entry partner): as the sequence (P24385 whole entry partner) above

Row | Compound | pIC50 (CDK6) | pIC50 (CDK4)
1 | CN(C)C(=O)c1sc2cnc(Nc3ccc(N4CCNCC4)cn3)cc2c1C1=CCCC1 [Compound A2, 3-(cyclopent-1-en-1-yl)-N,N-dimethyl-5-((5-(piperazin-1-yl)pyridin-2-yl)amino)thieno[2,3-c]pyridine-2-carboxamide] | 8.64 | 8.30
2 | CN(C)C(=O)c1sc2cnc(Nc3ccc(N4CCNCC4)cn3)cc2c1C1CC2CC2C1 (stereo not drawn) [Compound A7, 3-(bicyclo[3.1.0]hexan-3-yl)-N,N-dimethyl-5-((5-(piperazin-1-yl)pyridin-2-yl)amino)thieno[2,3-c]pyridine-2-carboxamide] | 8.19 | 8.33
3 | CC1(C)CN(C(=O)c2sc3cnc(Nc4ccc(N5CCNCC5)cn4)cc3c2C2CCCC2)C1 [Compound A18, (3-cyclopentyl-5-((5-(piperazin-1-yl)pyridin-2-yl)amino)thieno[2,3-c]pyridin-2-yl)(3,3-dimethylazetidin-1-yl)methanone] | 6.58 | 7.22
4 | O=C(c1sc2cnc(Nc3ccc(N4CCNCC4)cn3)cc2c1C1CCCC1)N1CC(O)C1 [Compound A19, (3-cyclopentyl-5-((5-(piperazin-1-yl)pyridin-2-yl)amino)thieno[2,3-c]pyridin-2-yl)(3-hydroxyazetidin-1-yl)methanone] | 7.74 | 7.66

Further molecules by rising pIC50 (CDK6), results first:

Row | pIC50 (CDK6) | pIC50 (CDK4) | Compound
5 | 7.60 | 7.47 | CN(C)C(=O)c1sc2cnc(Nc3ccc(N4CCNCC4)cn3)cc2c1C1CCOC1 (stereo not drawn) [Compound A13, N,N-dimethyl-5-((5-(piperazin-1-yl)pyridin-2-yl)amino)-3-(tetrahydrofuran-3-yl)thieno[2,3-c]pyridine-2-carboxamide]
6 | 7.70 | 7.92 | O=C(c1sc2cnc(Nc3ccc(N4CCNCC4)cn3)cc2c1C1CCCC1)N1CCCC1 [Compound A17, (3-cyclopentyl-5-((5-(piperazin-1-yl)pyridin-2-yl)amino)thieno[2,3-c]pyridin-2-yl)(pyrrolidin-1-yl)methanone]
7 | 7.97 | 7.69 | CC(C)c1c(C(=O)N(C)C)sc2cnc(Nc3ccc(N4CCNCC4)cn3)cc12 [Compound A15, 3-isopropyl-N,N-dimethyl-5-((5-(piperazin-1-yl)pyridin-2-yl)amino)thieno[2,3-c]pyridine-2-carboxamide]
8 | 8.48 | 8.28 | N#CC1CN(C(=O)c2sc3cnc(Nc4ccc(N5CCNCC5)cn4)cc3c2C2CCCC2)C1 [Compound A9, 1-(3-cyclopentyl-5-((5-(piperazin-1-yl)pyridin-2-yl)amino)thieno[2,3-c]pyridine-2-carbonyl) azetidine-3-carbonitrile]
9 | 8.68 | 8.34 | CN(C)C(=O)c1sc2cnc(Nc3ccc(N4CCNCC4)cn3)cc2c1C1CCC1 [Compound A4, 3-cyclobutyl-N,N-dimethyl-5-((5-(piperazin-1-yl)pyridin-2-yl)amino)thieno[2,3-c]pyridine-2-carboxamide]
